Patent US10240133B2, “ERK-derived peptides and uses thereof” (Yeda Research and Development Co. Ltd., priority 2013, dated 2019)

Columns and labels:
Assay type in all cases: cell-based
c-Myc = test: Western blotting of c-Myc phosphorylation; details: A2158 and A2352 B-Raf melanomas
Experimental: (§1) (A) EPE peptide prevents ERK1/2-importin7 interaction. HeLa cells were serum starved (0.1%, 16 hours), pretreated with EPE peptide, scrambled peptide (10 μM, 2 hours) or DMSO, and then stimulated with TPA (250 nM, 15 min). ERK1 were precipitated with αgERK1 Ab; importin7 co-immunoprecipitated with ERK1 was detected by WB with αimportin7 Ab. […] T47D, HeLa, MDA-MB-231 and A2352 cells were serum starved (0.1%, 16 hours), pretreated with EPE peptide, scrambled peptide (10 μM, 2 hours) or DMSO control, and then stimulated with TPA (250 nM, indicated times). Cell extracts were subjected to Western blot analysis with the indicated Abs. (C) EPE peptide inhibits phosphorylation of c-Myc and Elk1 in B-Raf melanomas. A2158 and A2352 cells were treated with scrambled and EPE peptide for two hours and then stimulated with the indicated concentration of TPA for 30 min. […] (D) Quantification of some of the results in B and C. […]
(§2) (i) Preparation of cellular extracts for Western Blotting: Cells were rinsed twice with ice-cold PBS and scraped into Radio-immunoprecipitation assay buffer (RIPA; 137 mM NaCl, 20 mM Tris (pH 7.4), 10% glycerol, 1% Triton X-100, 0.5% deoxycholate, 0.1% SDS, 2 mM EDTA, 1 mM PMSF, and 20 μM leupeptin). The extracts were centrifuged (20,000×g, 15 min, 4° C.), and the supernatants were further analyzed by Western blotting. […]

HeLa and T47D cells = test: Proliferation assay (Methylene Blue), optimal administration conditions; details: administered every 24 h in fresh medium
Experimental: FIGS. 9A-9B illustrate the dose response of the EPE peptides on melanoma cells proliferation. LOXIMVI (FIG. 9A) and A2352 (FIG. 9B) melanoma cells were treated with the indicated doses of the EPE or Scr peptides. Presented as percent of viable cells at 72 h/initial cell number.
All cells, except of MCF-10A, were seeded into 12-well cell plates in 1% FBS medium. MCF-10A cells were seeded in their complete medium diluted 5 fold. DMSO, Scr peptide, EPE peptide, or U0126 (final concentration of 10 μM each) were added to the appropriated wells four hours later. Every day medium was changed to fresh one containing the same agents. The number of viable cells was measured by Methylene Blue assay at 72 h after cell seeding. Shortly, cells were fixed with 4% Formaldehyde for 2 h at 23° C., washed once with 0.1M Borate Buffer pH 8.5 and stained with of 1% Methylene Blue in 0.1M Borate Buffer for 10 min. Color was extracted by adding 0.1 M HCl for 3 h at 23° C., and examined at 595 nm. For time course experiments, viable cells were measured at 0, 24, 48, 72 and 96 h after cell seeding. For dose response experiments we treaded the cells with 0.1, 1, 3, 10, or 30 μM of peptides for 72 h, as described above.

RSK = test: Western blotting of RSK phosphorylation; details: four distinct cell lines
Experimental: as §1, §2

most cell lines examined = test: Morphology assay (light microscopy); details: 10 μM
Experimental: (§3) FIGS. 5A-5D illustrate that the EPE peptide leads to apoptosis of B-Raf mutant cancer cells. (A) The EPE peptide affects the morphology of treated cells. The indicated cells were treated with either the EPE or Scr peptides, DMSO, or taxol for 72 h, and photographed by a light microscope. (B) The EPE peptide induces apoptosis in melanoma cells detected by TUNEL. The indicated cell lines were treated as in A for 24 h. Apoptosis was detected by TUNEL staining. Images were obtained by florescence microscope. (C) Quantification of B. The bar-graph represents percent of apoptotic cells calculated in 10 different fields. (D) The EPE peptide induces apoptosis of melanoma cells detected by PARP cleavage. The indicated cell lines were treated as in (A) for 24 h. Cell extracts were subjected to Western blotting with αPARP Ab.
(§4) Cells were seeded on glass cover slips in a 12-wells plate at 25% confluence with medium containing 1% of FCS. Peptides (EPE or Scr), DMSO, or U0126 in a final concentration of 10 μM, were added after 4 h (considered as time “0”). TUNEL staining was performed at 24 h after the treatment according to manufacturer instruction (Roche Applied Science, Nutley, N.J., USA). Briefly, the medium was removed and cells were fixed with 3% of paraformaldehyde (1.5 h, 23° C.). Cells were rinsed twice with PBS and permeabilized with 0.1% Triton X-100 and 0.1% sodium citrate for 2 min on ice. Cells were rinsed twice with PBS and 28 μl of TUNEL reaction mixture (25 μl of TUNEL label, 2.5 μl of TUNEL enzyme and 0.1 mg/ml of DAPI) was added directly on top of the slide, cells were incubated for 16 h in humid box at 37° C. Cover slips were rinsed three times with PBS and mounted on microscope slides. The slides were dried and then subjected to image acquisition by a florescence microscope. For morphology assay, the cells were seeded at approximately 25% confluence in 6 cm plates with medium containing 1% FCS. Peptides (EPE and Scr) or DMSO or U0126 in a final concentration of 10 μM, were added after 4 h (considered to be time 0), 24 h and 48 h. […]

B-Raf melanoma cells = test: Morphology assay (light microscopy); details: 10 μM
Experimental: as §3, §4

GQLNHILGILGEPEQED (Synthetic peptide (EPE)) [EPE peptide, NTS-derived peptide with phosphomimetic EPE motif]
phosphorylation of c-Myc (c-Myc): did inhibit | optimal administration conditions (maximal effect compared to Scr peptide) (HeLa and T47D cells): 10 µM | downstream activity of RSK (RSK): no effect | cell morphology (most cell lines examined): no effect | cell morphology (B-Raf melanoma cells): inducing cell-break already 24 hours after treatment
